Consider 3 compounds from publication PMC10787407, “Regulation of polysaccharide in Wu‐tou decoction on intestinal microflora and pharmacokinetics of small molecular compounds in AIA rats” (Chinese Medicine, 2024).

A short description of data set [1]: in vivo. Conditions: Sprague-Dawley, rat, po, 39.2 g/kg/day; for Cmax: C max; for Tmax: T max.
Method: (§1) In the PK study, 12 SD rats were divided into model group (MG group) and model + polysaccharide group (MPS group). Rats in the MPS group were given PS (9.8 g crude drug/kg/day) by oral administration, while rats in the MG group received the same amount of saline. After continuous administration for 21 days, rats in both groups were given SM (39.2 g crude drug/kg/day), and two groups of rats were subjected to a PK study.
(§2) The supernatant was collected and dried with N2, redissolved with 100 μL methanol, and centrifuged again after 10 min centrifugation at 4 °C, 13000 rpm. Then the supernatant was collected for UPLC-MS /MS analysis.
(§3) The Shimadzu UPLC-MS/MS system was used for the PK study. […] The multiple reaction monitoring (MRM) mode was used both in positive and negative mode. The MS parameters were as follows: flow rate of heating gas 10 L/min, flow rate of drying gas 10 L/min, flow rate of atomizing gas 3 L/min, interfacial temperature 300 ℃, DL temperature 250 ℃.
(§4) Separation was performed using a Waters ACQUITY UPLC BEH C18 column (2.1 mm × 100 mm, 1.7 μm). The mobile phase was 0.1% formic acid water (v/v) (A) and acetonitrile (B).
The nature of data set [2]: PK study of SM components in plasma of AIA rats by UPLC-MS/MS (MG vs MPS group). Conditions: for Absorption under the intervention of PS: MPS vs MG group.
Method: as §1, §2, §3, §4
The conditions of data set [3]: rat, in vivo.
Method: as §1, §2, §3, §4
Where [4] appears, read: MG group: AIA rats, saline 21 days, then oral SM 39.2 g crude drug/kg, plasma, mean ± SEM.
Setting [5] is: MPS group: AIA rats, oral PS 9.8 g crude drug/kg/day 21 days, then oral SM 39.2 g crude drug/kg, plasma, mean ± SEM.
Where [6] appears, read: t 1/2, MG group: AIA rats, saline 21 days, then oral SM 39.2 g crude drug/kg, plasma, mean ± SEM.
[7] abbreviates: t 1/2, MPS group: AIA rats, oral PS 9.8 g crude drug/kg/day 21 days, then oral SM 39.2 g crude drug/kg, plasma, mean ± SEM.
[8] abbreviates: MPS group compared with the MG group, AIA rats.
Setting [9] is: Sprague-Dawley, po, 39.2 g/kg/day.

As a reminder, the AUC(0-inf) is the area under the concentration-time curve extrapolated to infinity. A low value points to less exposure. For orientation: Cmax means the highest concentration seen after dosing. In general, Tmax refers to the time at which the peak concentration occurs. The term half-life denotes the time needed for the level to fall by half in the phase considered. A lower half-life goes with fast loss.

Each structure is given as a SMILES string. Read-outs that look alike come from different tables or passages of the source.

Take `O=C1C[C@@H](c2ccc(O[C@@H]3O[C@H](CO)[C@@H](O)[C@H](O)[C@H]3O)cc2)Oc2cc(O)ccc21` [Liquiritin]: in data set [1] (setting [4]), the AUC 0-t amounted to 300 ± 52.8 ng·h/mL, the area under the curve AUC(0-inf) came out at 307 ± 53.9 ng·h/mL, the Cmax is 126 ± 18.5 ng/mL and the Tmax turned out to be 0.167 ± 0.083 h. Further, in data set [1] (setting [5]), the Tmax was found to be 0.083 ± 0.001 h. For the same compound, the half-life in data set [1] (setting [6]) is 2.09 ± 0.132 h. The compound also had a half-life in data set [1] (setting [7]) of 3.3 ± 0.429 h. Besides, in data set [2] (setting [8]), the “Change of C max after oral PS” value is “significantly increased”. Besides, in data set [2] (setting [5]), the “AUC 0-t” value stood at 321.663 ± 49.723 ng·h/mL, the “AUC 0-∞” value worked out at 339.781 ± 52.584 ng·h/mL and the C max was 190.023 ± 19.153 ng/mL. The “Absorption under the intervention of PS” value in data set [2] (AIA rats) is on record as “increased”.
As to `C[C@@]12C[C@@]3(O)O[C@@H](O1)[C@]1(COC(=O)c4ccccc4)[C@H]3C[C@@]12O[C@@H]1O[C@H](CO)[C@@H](O)[C@H](O)[C@H]1O` [Paeoniflorin], in data set [1] (setting [4]), the AUC 0-t amounted to 2540 ± 95.9 ng·h/mL, the total exposure AUC(0-inf) is 2460 ± 223 ng·h/mL, the peak level (Cmax) was 1920 ± 225 ng/mL and the time of peak concentration (Tmax) is 0.438 ± 0.108 h. Further, in data set [1] (setting [5]), the AUC 0-t is 2870 ± 71.7 ng·h/mL, the AUC(0-inf) is 2900 ± 68.7 ng·h/mL, the highest level (Cmax) was 2060 ± 352 ng/mL and the time to peak (Tmax) turned out to be 0.396 ± 0.18 h. In data set [1] (setting [6]), this compound gave a half-life of 2.13 ± 0.102 h. Moreover, the half-life in data set [1] (setting [7]) is 1.99 ± 0.126 h. Also, in data set [2] (setting [8]), the “Change of AUC 0-t after oral PS” value was “increased” and the “Change of AUC 0-∞ after oral PS” value was “increased”. Further, the “Absorption under the intervention of PS” value in data set [2] (AIA rats) is recorded as “increased”.
With `C=C1[C@H]2C[C@@]3([C@@H]1O)[C@@H](CC2=O)[C@]12[C@@H]4C[C@H]3[C@H]1N(CC)C[C@]4(C)CC[C@@H]2O` [Songorine], in data set [3] (setting [9]), the “AUC 0-t” value is 80.730 ± 5.544 ng·h/mL, the “AUC 0-∞” value is 84.255 ± 5.364 ng·h/mL, the C max worked out at 17.665 ± 1.910 ng/mL and the T max came to 0.917 ± 0.773 h. The “t 1/2” value in data set [3] (setting [9]) turned out to be 2.522 ± 0.269 h. The “Absorption under the intervention of PS” value in data set [3] is “increased”. For the same compound, in data set [3] (po), the “Change of AUC 0-t after oral PS” value is listed as “increased” and the “Change of AUC 0-∞ after oral PS” value is given as “increased”. Moreover, in data set [1], the AUC 0-t was determined as 60.2 ± 6.5 ng·h/mL, the AUC(0-inf) came out at 64.6 ± 6.04 ng·h/mL, the Cmax was determined as 14 ± 2.32 ng/mL and the time to peak (Tmax) was found to be 0.667 ± 0.236 h. This compound also showed a half-life in data set [1] (t 1/2) of 2.64 ± 0.461 h.
